The nature of this data set: Water solubility of monomer building blocks (Tables 1 and 2). In kind it is physicochemical. The following applies: for solubility: water.

In brackets after ≈: the same amount, converted by molar mass.

As a reminder, the solubility is how much of the substance goes into solution per volume. `O=C(O)CCc1ccc(O)cc1` [DAT] returned a solubility (Table 2, unit inferred) of 1630 µg/mL (≈ 9.81 mM).
Still for that read-out and setting: to `O=C(O)CCCC(=O)O` [Glutaric acid] belongs 640000 µg/mL (≈ 4840 mM).
`NC(C(=O)O)c1ccc(O)cc1` (centres unmarked) [Hydroxyphenyl glycine] returned a solubility of 5000 µg/mL (≈ 29.9 mM).
On to `O=C(O)COCC(=O)O` [Diglycolic acid], for which the “Water Solubility” value (Table 2, unit not given) is “Water soluble”.
With `O=C(O)c1ccc(O)cc1` [4-hydroxy benzoic acid], where the note is “Table 2, unit inferred”, the concentration in solution (solubility) was 8000 µg/mL (≈ 57.9 mM).

The values are drawn from US8927659B2, “Resorbable phenolic polymers” (TYRX, Inc., priority 2005, dated 2015).
